From ChEMBL document CHEMBL1201862, “PubChem BioAssay data set” (2004)
The source made the active and inactive calls. No stated cut-off is given here; in the data, actives have a measured IC50 and inactives only a lower limit.

Molecular target: Envelope glycoprotein gp160 (Human immunodeficiency virus 1, UniProt Q6QLK5)
Experiment: cell-free HIV fusion peptide-binding blockers – biochemical, uHTS, fluorescence dequenching, […] (AID 1986)

Envelope glycoprotein gp160, sequence (Q6QLK5 whole entry, the tested form may be a part): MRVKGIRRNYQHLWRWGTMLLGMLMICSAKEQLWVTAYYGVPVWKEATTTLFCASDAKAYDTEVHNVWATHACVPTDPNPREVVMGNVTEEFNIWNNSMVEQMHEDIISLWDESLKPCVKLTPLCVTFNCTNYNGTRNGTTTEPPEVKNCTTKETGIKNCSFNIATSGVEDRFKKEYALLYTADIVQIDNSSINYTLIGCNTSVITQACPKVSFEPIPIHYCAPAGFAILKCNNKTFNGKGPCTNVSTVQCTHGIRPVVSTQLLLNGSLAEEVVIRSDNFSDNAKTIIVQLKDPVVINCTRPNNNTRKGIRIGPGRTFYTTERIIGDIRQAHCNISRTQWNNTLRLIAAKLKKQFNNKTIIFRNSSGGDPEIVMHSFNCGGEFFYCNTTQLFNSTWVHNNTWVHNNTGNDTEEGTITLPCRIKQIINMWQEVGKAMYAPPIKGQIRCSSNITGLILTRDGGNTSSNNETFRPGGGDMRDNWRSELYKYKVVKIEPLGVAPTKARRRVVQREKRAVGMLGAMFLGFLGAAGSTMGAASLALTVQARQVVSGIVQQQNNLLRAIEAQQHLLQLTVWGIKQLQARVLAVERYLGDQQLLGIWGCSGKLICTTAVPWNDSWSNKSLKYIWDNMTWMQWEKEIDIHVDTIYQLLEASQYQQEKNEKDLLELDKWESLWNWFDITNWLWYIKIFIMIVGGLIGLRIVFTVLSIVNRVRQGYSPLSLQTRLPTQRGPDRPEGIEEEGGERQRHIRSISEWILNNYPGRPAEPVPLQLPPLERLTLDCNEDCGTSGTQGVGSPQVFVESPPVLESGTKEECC

## CCOc1cc(/C=C2/C(=N)N3C(=NC2=O)SN=C3S(=O)(=O)CC)ccc1OC(=O)c1ccco1
  IC50: 19.3 µM (active)
